In paper PMC10817917, “Alkyl deoxyglycoside-polymyxin combinations against critical priority carbapenem-resistant gram-negative bacteria” (Scientific Reports, 2024):
In brackets after ≈: the same amount, converted by molar mass. Read-outs that look alike come from different tables or passages of the source.

What was measured:
[1] = tested on: Bacillus anthracis (Sterne, ovine and pathogenic forms), Enterococcus faecalis and Bacillus cereus; settings: Gram-positive bacteria; cited from earlier work
K. pneumoniae CQ1947 = assay: Broth microdilution MIC, glycosides with or without polymyxins; type: cell-based, Klebsiella pneumoniae; settings: for MIC: Klebsiella pneumoniae, CQ1947
K. pneumoniae CQ4921 = assay: Broth microdilution MIC/MBC, glycosides with or without polymyxins; type: cell-based, Klebsiella pneumoniae; settings: for MIC: Klebsiella pneumoniae, CQ4921
A. baumannii CQ4322 = assay: as above; type: cell-based, Acinetobacter baumannii; settings: for MIC: Acinetobacter baumannii, CQ4322
[2] = alone, read-out: MICA (MIC of each compound individually)
[3] = combination with the lowest FICI
[4] = compound + colistin, lowest FICI

CCCCCCCCCCCCO[C@H]1O[C@H](C)C[C@H](O)[C@H]1O [Compound 1, dodecyl 4,6-dideoxy-α/β-D-xylo-hexopyranoside]
MIC [1]: 12.6 µM (≈ 3.99 µg/mL)
MIC of colistin in combination with the compound (K. pneumoniae CQ1947; Cpd conc. 0.4 μg/mL, strain F): > 0.5 µg/mL
MIC of colistin in combination with the compound (K. pneumoniae CQ1947; Cpd conc. 0.8 μg/mL, strain F): > 0.5 µg/mL
MIC of colistin in combination with the compound (K. pneumoniae CQ1947; Cpd conc. 3.125 μg/mL, strain F): 0.5 µg/mL
MIC of colistin in combination with the compound (K. pneumoniae CQ1947; Cpd conc. 6.25 μg/mL, strain F): 0.5 µg/mL
MIC of colistin in combination with the compound (K. pneumoniae CQ1947; Cpd conc. 12.5 μg/mL, strain F): 0.5 µg/mL
MIC of colistin in combination with the compound (K. pneumoniae CQ1947; Cpd conc. […], strain F): > 0.5 µg/mL
MIC (K. pneumoniae CQ1947; agent alone, no adjuvant (polymyxin conc. 0), strain F, read-out: MIC): > 100 µg/mL
MIC (K. pneumoniae CQ1947; [2]): > 100 µg/mL
MIC of compound in combination with PMB (K. pneumoniae CQ1947; PMB 0.25 μg/mL, strain F): > 100 µg/mL
MIC of compound in combination with PMB (K. pneumoniae CQ1947; PMB 0.5 μg/mL, strain F): 3.1 µg/mL
MIC of compound in combination with colistin (K. pneumoniae CQ1947; colistin 0.06 μg/mL, strain F): > 100 µg/mL
MIC of compound in combination with colistin (K. pneumoniae CQ1947; colistin 0.125 μg/mL, strain F): > 100 µg/mL
MIC of compound in combination with colistin (K. pneumoniae CQ1947; colistin 0.25 μg/mL, strain F): > 100 µg/mL
MIC of compound in combination with colistin (K. pneumoniae CQ1947; colistin 0.5 μg/mL, strain F): 3.1 µg/mL
MICA(A + B) (MIC of compound in combination with colistin) (K. pneumoniae CQ1947; [3]): 3.125 µg/mL
MICB(A + B) (MIC of colistin in combination with compound) (K. pneumoniae CQ1947; [3]): 0.5 µg/mL
Interpretation (of FICI) (K. pneumoniae CQ1947; compound + colistin): Indifferent (1.0 to 4.0 were indifferent)
FICI (K. pneumoniae CQ1947; [4]): 1.016
MIC of colistin in combination with the compound (K. pneumoniae CQ4921; Cpd conc. 0.4 μg/mL, strain C): > 0.5 µg/mL
MIC of colistin in combination with the compound (K. pneumoniae CQ4921; Cpd conc. 0.8 μg/mL, strain C): > 0.5 µg/mL
MIC of colistin in combination with the compound (K. pneumoniae CQ4921; Cpd conc. 3.125 μg/mL, strain C): 0.25 µg/mL
MIC of colistin in combination with the compound (K. pneumoniae CQ4921; Cpd conc. 6.25 μg/mL, strain C): 0.25 µg/mL
MIC of colistin in combination with the compound (K. pneumoniae CQ4921; Cpd conc. 12.5 μg/mL, strain C): 0.25 µg/mL
MIC of colistin in combination with the compound (K. pneumoniae CQ4921; Cpd conc. […], strain C): 0.5 µg/mL
MIC (K. pneumoniae CQ4921; agent alone, no adjuvant (polymyxin conc. 0), strain C, read-out: MIC): > 100 µg/mL
MIC (K. pneumoniae CQ4921; [2]): > 100 µg/mL
MIC of compound in combination with PMB (K. pneumoniae CQ4921; PMB 0.25 μg/mL, strain C): > 100 µg/mL
MIC of compound in combination with PMB (K. pneumoniae CQ4921; PMB 0.5 μg/mL, strain C): 1.6 µg/mL
MIC of compound in combination with colistin (K. pneumoniae CQ4921; colistin 0.06 μg/mL, strain C): > 100 µg/mL
MIC of compound in combination with colistin (K. pneumoniae CQ4921; colistin 0.125 μg/mL, strain C): > 100 µg/mL
MIC of compound in combination with colistin (K. pneumoniae CQ4921; colistin 0.25 μg/mL, strain C): 3.1 µg/mL
MIC of compound in combination with colistin (K. pneumoniae CQ4921; colistin 0.5 μg/mL, strain C): 1.6 µg/mL
MICA(A + B) (MIC of compound in combination with colistin) (K. pneumoniae CQ4921; [3]): 3.125 µg/mL
MICB(A + B) (MIC of colistin in combination with compound) (K. pneumoniae CQ4921; [3]): 0.25 µg/mL
Interpretation (of FICI) (K. pneumoniae CQ4921; compound + colistin): Additive (from 0.5 to 1.0 were additive)
FICI (K. pneumoniae CQ4921; [4]): 0.52
MIC (A. baumannii CQ4322; agent alone, no adjuvant (polymyxin conc. 0), strain G, read-out: MIC): > 100 µg/mL
MIC (A. baumannii CQ4322; [2]): > 100 µg/mL
MIC of colistin in combination with the compound (A. baumannii CQ4322; Cpd conc. 0.4 μg/mL, strain G): > 0.5 µg/mL
MIC of colistin in combination with the compound (A. baumannii CQ4322; Cpd conc. 0.8 μg/mL, strain G): > 0.5 µg/mL
MIC of colistin in combination with the compound (A. baumannii CQ4322; Cpd conc. 3.125 μg/mL, strain G): 0.25 µg/mL
MIC of colistin in combination with the compound (A. baumannii CQ4322; Cpd conc. 6.25 μg/mL, strain G): 0.25 µg/mL
MIC of colistin in combination with the compound (A. baumannii CQ4322; Cpd conc. 12.5 μg/mL, strain G): 0.25 µg/mL
MIC of colistin in combination with the compound (A. baumannii CQ4322; Cpd conc. […], strain G): 0.5 µg/mL
MIC of compound in combination with PMB (A. baumannii CQ4322; PMB 0.25 μg/mL, strain G): > 100 µg/mL
MIC of compound in combination with PMB (A. baumannii CQ4322; PMB 0.5 μg/mL, strain G): 3.1 µg/mL
MIC of compound in combination with colistin (A. baumannii CQ4322; colistin 0.06 μg/mL, strain G): > 100 µg/mL
MIC of compound in combination with colistin (A. baumannii CQ4322; colistin 0.125 μg/mL, strain G): > 100 µg/mL
MIC of compound in combination with colistin (A. baumannii CQ4322; colistin 0.25 μg/mL, strain G): 3.1 µg/mL
MIC of compound in combination with colistin (A. baumannii CQ4322; colistin 0.5 μg/mL, strain G): 1.6 µg/mL
MICA(A + B) (MIC of compound in combination with colistin) (A. baumannii CQ4322; [3]): 3.125 µg/mL
MICB(A + B) (MIC of colistin in combination with compound) (A. baumannii CQ4322; [3]): 0.25 µg/mL
Interpretation (of FICI) (A. baumannii CQ4322; compound + colistin): Additive (from 0.5 to 1.0 were additive)
FICI (A. baumannii CQ4322; [4]): 0.52
